Reference: patent US10287291B2, “Seco-cyclopropapyrroloindole compounds, antibody-drug conjugates thereof, and methods of making and use” (priority 2016, dated 2019)
Read-outs that look alike come from different tables or passages of the source.

How the values were obtained:
[1] = system: H226 (human mesothelioma (lung) cancer cell line); assay: 72 hr ATP luminescence proliferation inhibition, H226; format: cell-based
Method: (§1) Proliferation inhibition was measured using a 72 hr ATP luminescence assay (Cheng et al., U.S. Pat. No. 8,394,922 B2 (2013)).
(§2) Proliferation inhibition was measured against: (a) H226 (human mesothelioma (lung) cancer cell line); (b) N87 (human gastric (stomach) cancer cell line); (c) OVCAR3 (human ovarian cancer cell line); (d) HCT116 (human colon cancer cell line); and (e) HCT116/VM46 (multidrug and paclitaxel resistant subline of HCT116).

[2] = system: N87 (human gastric (stomach) cancer cell line); assay: 72 hr ATP luminescence proliferation inhibition, N87; format: cell-based; conditions: read-out: Proliferation Inhibition of Cancer Cells EC50, N87
Method: as §1, §2

[3] = system: OVCAR3 (human ovarian cancer cell line); assay: 72 hr ATP luminescence proliferation inhibition, OVCAR3; format: cell-based
Method: as §1, §2

[4] = system: HCT116 (human colon cancer cell line); assay: 72 hr ATP luminescence proliferation inhibition, HCT116; format: cell-based
Method: as §1, §2

[5] = system: HCT116/VM46 (multidrug and paclitaxel resistant subline of HCT116); assay: 72 hr ATP luminescence proliferation inhibition, HCT116/VM46; format: cell-based, human; conditions: read-out: Proliferation Inhibition of Cancer Cells EC50, HCT116/VM46
Method: as §1, §2

[6] = Homo sapiens, NCI-H226, read-out: Proliferation Inhibition of Cancer Cells EC50, H226
[7] = Homo sapiens, OVCAR-3, read-out: Proliferation Inhibition of Cancer Cells EC50, OVCAR3
[8] = Homo sapiens, HCT-116, read-out: Proliferation Inhibition of Cancer Cells EC50, HCT116
[9] = Homo sapiens, HCT-116/VM46, HCT116/VM46 cell line
[10] = read-out: Proliferation Inhibition of Cancer Cells EC50, H226
[11] = read-out: Proliferation Inhibition of Cancer Cells EC50, OVCAR3
[12] = read-out: Proliferation Inhibition of Cancer Cells EC50, HCT116

| SMILES | EC50 [1, 6] [nM] | EC50 ([2]; Homo sapiens) [nM] | EC50 [3, 7] [nM] | EC50 [4, 8] [nM] | EC50 [5, 9] [nM] | EC50 [1, 10] [nM] | EC50 [2] [nM] | EC50 [3, 11] [nM] | EC50 [4, 12] [nM] | EC50 ([5]; HCT116/VM46 cell line) [nM] |
| --- | --- | --- | --- | --- | --- | --- | --- | --- | --- | --- |
| COCCCOc1ccc2[nH]c(C(=O)N3C[C@@H](CCl)c4c3cc(O)c3[nH]c(C(=O)N5CCOCC5)cc43)cc2c1 [Ia-09] | 0.055 | 0.016 | 0.025 |  |  |  |  |  |  |  |
| COc1ccc2[nH]c(C(=O)N3C[C@@H](CCl)c4c3cc(O)c3[nH]c(C(=O)N5CCOCC5)cc43)cc2c1 [Ia-11] | 1 | 1.2 | 0.52 | 0.58 | 0.92 |  |  |  |  |  |
| CC[C@@H](CO)NC(=O)c1cc2c3c(cc(O)c2[nH]1)N(C(=O)c1cc2cc(OC)ccc2[nH]1)C[C@H]3CCl [Ia-23] |  |  |  |  |  | 7.5 | 2.6 | 1.1 | 0.9 | 1.9 |
| COCCOc1ccc2[nH]c(C(=O)N3C[C@@H](CCl)c4c3cc(O)c3[nH]c(C(=O)N5CCOCC5)cc43)cc2c1 [Ia-01] | 0.014 | 0.007 |  |  |  |  |  |  |  |  |
| COCOc1ccc(C(=O)Nc2ccc3nc(C(=O)N4C[C@@H](CCl)c5c4cc(O)c4[nH]c(C(=O)N6CCOCC6)cc54)cn3c2)cc1 [Ib-02] |  |  |  |  |  | 1 | 0.96 | 0.53 | 0.64 | 1.9 |
| CNCCN(C)C(=O)c1cc2c3c(cc(O)c2[nH]1)N(C(=O)c1cc2cc(OC)ccc2[nH]1)C[C@H]3CCl [Ia-21] |  |  |  |  |  | 0.99 | 2.2 | 1.2 | 0.85 | 0.5 |
| CCCOc1ccc2[nH]c(C(=O)N3C[C@@H](CCl)c4c3cc(O)c3[nH]c(C(=O)N5CCOCC5)cc43)cc2c1 [Ia-03] | 0.038 | 0.048 | 0.026 | 0.034 | 0.034 |  |  |  |  |  |
| O=C(c1cc2c3c(cc(O)c2[nH]1)N(C(=O)c1cc2cc(OC4CCOCC4)ccc2[nH]1)C[C@H]3CCl)N1CCOCC1 [Ia-14] | 0.43 | 0.36 | 0.1 | 0.26 | 0.77 |  |  |  |  |  |
| CC(C)CCOc1ccc2[nH]c(C(=O)N3C[C@@H](CCl)c4c3cc(O)c3[nH]c(C(=O)N5CCOCC5)cc43)cc2c1 [Ia-31] |  |  |  |  |  | 0.24 | 0.43 | 0.53 | 0.62 | 0.86 |
| O=C(c1cc2c3c(cc(O)c2[nH]1)N(C(=O)c1cc2cc(OC4CCCC4)ccc2[nH]1)C[C@H]3CCl)N1CCOCC1 [Ia-15] | 0.28 | 0.32 | 0.21 | 0.22 | 0.26 |  |  |  |  |  |
| Nc1ccc2[nH]c(C(=O)Nc3ccc4[nH]c(C(=O)N5C[C@@H](CCl)c6c5cc(O)c5[nH]c(C(=O)N7CCOCC7)cc65)cc4c3)cc2c1 [Ic-01] | 0.91 | 1.5 | 0.89 | 0.43 | 0.75 |  |  |  |  |  |
| O=C(c1cc2c3c(cc(O)c2[nH]1)N(C(=O)c1cc2cc(-c4ccccc4)ccc2[nH]1)C[C@H]3CCl)N1CCOCC1 [Ia-12] | 0.53 | 1.3 | 0.54 | 0.4 | 0.29 |  |  |  |  |  |
| COc1ccc2[nH]c(C(=O)N3C[C@@H](CCl)c4c3cc(O)c3[nH]c(C(=O)NCCOCCO)cc43)cc2c1 [Ia-22] |  |  |  |  |  | 5.1 | 1.9 | 1.1 | 1.2 | 1.2 |
| CN(C)CCOc1ccc2[nH]c(C(=O)N3C[C@@H](CCl)c4c3cc(O)c3[nH]c(C(=O)Nc5ccc(O)cc5)cc43)cc2c1 [Ia-27] |  |  |  |  |  | 1.4 | 3.5 |  |  |  |
| Nc1ccc2[nH]c(C(=O)N3C[C@@H](CCl)c4c3cc(O)c3[nH]c(C(=O)N5CCNCC5)cc43)cc2c1 [Ia-25] |  |  |  |  |  | 23 | 38 | 22 | 13 | 24 |
| O=C(c1cc2c3c(cc(O)c2[nH]1)N(C(=O)c1cc2cc(OCC4CC4)ccc2[nH]1)C[C@H]3CCl)N1CCOCC1 [Ia-04] | 0.11 | 0.15 | 0.11 | 0.12 | 0.12 |  |  |  |  |  |

| SMILES | EC50 [1, 6] [nM] | EC50 ([2]; Homo sapiens) [nM] | EC50 [3, 7] [nM] | EC50 [4, 8] [nM] | EC50 [5, 9] [nM] | EC50 [1, 10] [nM] | EC50 [2] [nM] | EC50 [3, 11] [nM] | EC50 [4, 12] [nM] | EC50 ([5]; HCT116/VM46 cell line) [nM] |
| --- | --- | --- | --- | --- | --- | --- | --- | --- | --- | --- |
| COc1cc2cc(C(=O)N3C[C@@H](CCl)c4c3cc(O)c3[nH]c(C(=O)N5CCOCC5)cc43)[nH]c2c(OC)c1OC [Ia-30] | 0.018 | 0.045 | 0.032 | 0.033 | 0.097 |  |  |  |  |  |
| O=C(c1cc2c3c(cc(O)c2[nH]1)N(C(=O)c1cc2cc(OC4CCC4)ccc2[nH]1)C[C@H]3CCl)N1CCOCC1 [Ia-06] |  |  |  |  |  | 0.47 | 0.56 | 0.32 | 0.36 | 0.36 |
| O=C(Nc1ccc2nc(C(=O)N3C[C@@H](CCl)c4c3cc(O)c3[nH]c(C(=O)N5CCOCC5)cc43)cn2c1)c1ccc(O)cc1 [Ib-01] |  |  |  |  |  | 2.39 | 3.6 | 2.8 | 3.2 | 3.5 |
| Nc1ccc(C(=O)Nc2ccc3[nH]c(C(=O)N4C[C@@H](CCl)c5c4cc(O)c4[nH]c(C(=O)N6CCOCC6)cc54)cc3c2)cc1 [Id-02] | 1.2 | 1.4 |  |  |  |  |  |  |  |  |
| CCCOc1ccc2[nH]c(C(=O)N3C[C@@H](CCl)c4c3cc(O)c3[nH]c(C(=O)N5CCCOCC5)cc43)cc2c1 [Ia-28] |  |  |  |  |  | 0.3 | 0.066 | 0.058 | 0.079 | 0.09 |
| CCOc1ccc2[nH]c(C(=O)N3C[C@@H](CCl)c4c3cc(O)c3[nH]c(C(=O)N5CCOCC5)cc43)cc2c1 [Ia-02] | 0.042 | 0.097 | 0.048 | 0.045 | 0.045 |  |  |  |  |  |
| COc1ccc2[nH]c(C(=O)N3C[C@@H](CCl)c4c3cc(O)c3[nH]c(C(=O)N5CCN(C)CC5)cc43)cc2c1 [Ia-20] |  |  |  |  |  | 6.5 | 3.5 | 1.5 | 1.9 | 2.6 |
| CC(C)Oc1ccc2[nH]c(C(=O)N3C[C@@H](CCl)c4c3cc(O)c3[nH]c(C(=O)N5CCOCC5)cc43)cc2c1 [Ia-13] | 0.32 | 0.48 | 0.12 | 0.18 | 0.24 |  |  |  |  |  |
| CN(C)CCOc1ccc2[nH]c(C(=O)N3C[C@@H](CCl)c4c3cc(O)c3[nH]c(C(=O)N5CCOCC5)cc43)cc2c1 [Ia-16] | 0.4 | 0.5 |  |  |  |  |  |  |  |  |
| O=C(c1cc2c3c(cc(O)c2[nH]1)N(C(=O)c1cc2cc(OCC4CCCCC4)ccc2[nH]1)C[C@H]3CCl)N1CCOCC1 [Ia-10] | 0.25 | 0.15 |  |  |  |  |  |  |  |  |
| O=C(Nc1ccc2[nH]c(C(=O)N3C[C@@H](CCl)c4c3cc(O)c3[nH]c(C(=O)N5CCOCC5)cc43)cc2c1)c1ccc(O)cc1 [Id-01] |  | 2.3 | 1.1 | 0.93 |  |  |  |  |  |  |
| O=C(c1cc2c3c(cc(O)c2[nH]1)N(C(=O)c1cc2cc(OCCO)ccc2[nH]1)C[C@H]3CCl)N1CCOCC1 [Ia-08] | 3.4 | 1.3 | 2.1 |  |  |  |  |  |  |  |
| CNCCN(CCOCCO)C(=O)c1cc2c3c(cc(O)c2[nH]1)N(C(=O)c1cc2cc(OC)ccc2[nH]1)C[C@H]3CCl [Ia-24] |  |  |  |  |  | 250 |  | 250 | 250 | 250 |
| COCCOc1ccc2[nH]c(C(=O)N3C[C@@H](CCl)c4c3cc(O)c3[nH]c(C(=O)Nc5ccc(N)cc5)cc43)cc2c1 [Ia-29] |  |  |  |  |  | 0.63 | 0.26 |  |  |  |
| CN1CCN(C(=O)c2cc3c4c(cc(O)c3[nH]2)N(C(=O)c2cc3cc(N)ccc3[nH]2)C[C@H]4CCl)CC1 [Ia-26] |  |  |  |  |  | 9.5 |  | 2.7 | 4.1 | 12 |
